Data on four compounds can be found in patent publication US7005298B1, “Micropropagation and production of phytopharmaceutical plants” (priority 1999, dated 2006).

Marks after values point to notes of the source that are not given here.

Data set [1] deals with Echinacea purpurea petiole explants. As to the kind of experiment: Regeneration of Echinacea purpurea petiole explants on induction medium (BAP, TDZ, IAA). As to conditions: for Number of regenerants/petiole: after 33 days of culture. The format is cell-based. The protocol: The design of all experiments was a complete randomized block and treatments consisted of five replications. All the experiments were repeated at least twice and the data were analyzed using SAS Version 6.12 (SAS Inc., 1995). Significant differences between means were assessed by a Student-Neuman-Keulls means separation test at P≦0.05.
Germinating seedlings were cultured onto MS medium (Murashige & Skoog, 1962) with B5 vitamins (Gamborg et al 1968), 30 g·L^−1 sucrose and 3 g·L^−1 gelrite in Magenta boxes. Petiole explants, 2 cm in length were excised from 4 week old sterile Echinacea purpurea plants and cultured onto induction medium comprising MS media supplemented with thidiazuron (TDZ) (0.5, 1, 5 and 10 μmol·L^−1) or BAP (1, 2.5, 5, 7.5, 10, 12.5 and 15 μmol·L^−1). TDZ was added to the media at concentrations of 0.5 and 1.0 μmmol·L^−1 in combination with indole acetic acid (IAA, an auxin) at concentrations of 5 and 10 μmol·L^−1. Explants cultured on media containing TDZ and IAA were subcultured onto MS basal media after 23 days while those cultured on media containing higher concentrations of TDZ were subcultured onto MS basal media after 4 and 8 days. All treatments consisted of 10 plates per treatment and 6 explants per plate. Treatments were incubated in a growth cabinet with a 16 hour photoperiod under cool white light at 40–60 μmol·m^−2·s^−1. Regeneration was quantified after 25 and 33 days for all petiole cultures and roots after 33 and 42 days of culture. The resulting regenerants were excised from petioles and subcultured onto MS basal media in test tubes for germination after 32 days of culture.

Data set [2] concerns St. John's wort plantlets. As to the kind of experiment: Lithium accumulation and growth of St. John's wort plantlets on lithium-supplemented liquid basal medium. The format is in vivo, Hypericum perforatum. The protocol: St. John's wort seedlings were obtained from sterilized seeds germinated in a controlled environment. St. John's wort seeds were sterilized by immersing in a 70% ethanol solution for 5 s, followed by an immersion in a 30% solution of 5.4% sodium hypochlorite (Lilo Products, Hamilton, Ontario) in water with one drop of Tween 20 per 500 mL for 20 min, and a three times rinse in sterile distilled water. Sterile seeds were germinated and maintained on water agar (8 g·L^−1) for 16 days in darkness in a growth cabinet at 24° C. Individual seedlings were cultured in Magenta boxes on a medium containing MS medium (Murashige and Skoog, 1962), B5 vitamins (Gamborg et al 1968), 30 g·L^−1 sucrose and 3 g·L^−1 gellan gum (Gelrite, Schweitzerhall Inc., South Plainfield, N.J., USA). Seedling cultures were incubated in a growth cabinet with a 16 hour photoperiod under cool white light at 40–60 μmol·m^−2·s^−1. After 30 days, seedlings were excised from the Magenta boxes and subcultured into 125 mL flasks containing 25 mL of a basal medium containing MS medium (Murashige and Skoog, 1962), B5 vitamins (Gamborg et al 1968) and 30 g·L^−1 sucrose. […]
In a second series of experiments, the lithium accumulation of regenerated St. John's wort shoots was determined. […]
Samples were harvested from the cultures analysed for lithium with the same protocol as described above.

The subject of data set [3] is Echinacea plantlets. As to the kind of experiment: Zinc uptake and growth of Echinacea plantlets on zinc-supplemented liquid basal medium. The format is in vivo, Echinacea purpurea. The method, then:
Germinating seedlings were cultured onto MS medium (Murashige & Skoog, 1962) with B5 vitamins (Gamborg et al 1968), 30 g·L^−1 sucrose and 3 g·L^−1 gelrite in Magenta boxes and incubated in a controlled environment chamber for 30 days with a 16 hour photoperiod under cool white light at 40–60 μmol·m^−2·s^−1. Mature seedlings were subcultured into 125 mL flasks containing 25 mL of basal medium supplemented with zinc at 0, 50, 100, 150 or 200 mg·L^−1 and incubated in the same chamber for 30 days (liquid baslal medium, Table 1).
In experiments designed to determine the zinc uptake in micropropagated Echinacea plantlets, petiole explants, 2 cm in length were excised from the 4 week old sterile Echinacea plants and subcultured onto induction medium comprising MS media supplemented with thidiazuron (TDZ) (0.5, 1, 5 and 10 μmol·L^−1) or BAP (1, 2.5, 5, 7.5, 10, 12.5 and 15 μmol·L^−1) alone or in combination with indoleacetic acid (IAA) at concentrations of 5 and 10 μmol·L^−1. […] Regeneration was quantified after 25 and 33 days for all petiole cultures and roots after 33 and 42 days of culture. […]
Plants were harvested on day 45 after treatments were initiated. […] Fresh weight of individual plantlets was determined prior to air drying at 90° C. for 48 hours. […] The zinc content of the samples was determined using an AA55 Varian Atomic Absorption Spectrophotometer or by ICP Analysis. […]

In data set [4] the test system is livestock growth. As to conditions: animal feeds supplemented with 3000 ppm inorganic zinc; cited from earlier work.
The test system of data set [5] is uptake of serotonin, dopamine, noradrenaline, GABA and L-glutamate. Particulars: animal cell cultures; cited from earlier work.

With `c1ccc(CNc2ncnc3[nH]cnc23)cc1` [BAP, benzylaminopurine], the Number of regenerants/petiole is listed as 5.4^ab in data set [1] (BAP 1 μmol·L^−1); 8.1^a in data set [1] (BAP 2.5 μmol·L^−1); 6.6^ab in data set [1] (BAP 5 μmol·L^−1); 5.2^ab in data set [1] (BAP 7.5 μmol·L^−1); 3.9^b in data set [1] (BAP 10 μmol·L^−1); 5.2^ab in data set [1] (BAP 12.5 μmol·L^−1). Besides, the Number of regenerants/petiole in data set [1] (BAP 15 μmol·L^−1) is on record as 5.5^ab. For the same compound, the “de novo shoot formation” value in data set [1] (BAP as the sole growth regulating compound, all concentrations) is “induced de nova shoot formation at all concentrations”. Besides, in data set [1] (culture medium supplemented with BAP), the “callus formation and elongation of the petioles” value was “induce callus formation and elongation of the petioles”.
As for `[Li]` [lithium], the appearance of plantlets result in data set [2] (all treatment levels (0–200 mg·L^−1 lithium)) is reported as “appeared healthy”. The growth rate entry in data set [2] (lithium supplementation of the culture medium, all treatment levels) is on record as “unaffected”.
As to `[Zn]` [zinc], in data set [3] (50, 100 and 150 mg·L^−1 zinc treatment groups), the appearance of plants entry is “appeared normal and healthy”. In data set [3] (higher concentrations of zinc in the medium (above 150 mg·L^−1)), the plantlet growth result is recorded as “some inhibition of growth was observed”. In addition, in data set [4], the “muscle and protein accretion and rate of growth” value is “more rapid muscle and protein accretion and an overall acceleration in the rate of growth”.
As to hyperforin, in data set [5], the “uptake of serotonin, dopamine, noradrenaline, GABA and L-glutamate” value is given as “inhibition of uptake”.
